# Source: patent US20060234945A1, “Ophthalmic therapeutic composition” (Nihon Tenganyaku Kenkyusho Co., LTD., priority 2002, published 2006)
# Key:
# [1] = system: rabbit corneal wound model; experiment: Corneal wound healing promotion action 1 (in vivo), approx. 6 mm corneal epithelial abrasion; parameters: species or system Japanese white rabbit
# Experimental: (2) Corneal Wound Healing Promotion Action 1 (In Vivo)
# Using a male Japanese white rabbit, a wound of approximately 6 mm in diameter was produced in the cornea by inducing corneal epithelial abrasion in accordance with the method of Cintron et al. (Ophthalmic Res., 11, pp. 90-96 (1979)). The wound area was measured using the fluorescein-stained area as an index. The effects of the test compound on corneal wound healing were examined.
# The eye drops containing the respective concentrations of the test compound were instilled (30 μl at a time) at 0, 3, 6, 9, 12, 18, 24, 27, 30, 33, 36, 42, and 48 hours after inducing corneal epithelial abrasion. In measuring the wound area, fluorescein staining was carried out and a photograph of the cornea was measured. The fluorescein-stained area of the photographed cornea was computed using an image analysis processing system.
# (§1) In Tables 1 and 2, the respective values indicate the mean value±standard deviation (n=6). Statistical analysis was carried out using Dunnett's multiple comparison with respect to PBS with the area of the corneal wound portion immediately after (0 hours after) corneal epithelial abrasion being set to 100% (*p<0.05, ** p<0.01; vs. control).
# [2] = system: rabbit corneal wound model; experiment: Corneal wound healing promotion action 2 (in vivo), approx. 8 mm corneal epithelial abrasion; parameters: species or system Japanese white rabbit
# Experimental: (3) Corneal Wound Healing Promotion Action 2 (In Vivo)
# Using the same method as (2) above, corneal epithelial abrasion was induced in a Japanese white rabbit to produce a wound of approximately 8 mm in diameter in the cornea. The wound area was measured using the fluorescein-stained area as an index to examine the effects on corneal wound healing.
# The eye drops containing the respective concentrations of the test compound were instilled (25 μl at a time) at 0, 6, 12, 18, 24, 30, 36, 42, 48, and 54 hours after induction corneal epithelial abrasion. In measuring the wound area, fluorescein staining was carried out and a photograph of the cornea was measured. The fluorescein-stained area of the photographed cornea was computed using an image analysis processing system.
# as §1, with “Tables 3” for “Tables 1”, “and 4,” for “and 2,”, “to physiological saline” for “to PBS”
# corneal epithelium = experiment: Action on corneal epithelium migration (in vitro), corneal organ culture system; format: cell-based, Japanese white rabbit; details: rabbit corneal blocks incubated 20 hours in Medium-199 with test compound; FIG. 1, 51.2-512.3 nM; vs control
# Experimental: (1) Action on Corneal Epithelium Migration (In Vitro)
# Using the cornea of male Japanese white rabbits, the effects on corneal epithelium migration were examined using the migrating length of the corneal epithelium in a corneal organ culture system as an index in accordance with the method of Nishida et al. (J. Cell. Biol., 97, pp. 1653-1657 (1983)).
# Corneal blocks (three per group) were cut out from rabbit corneal tissue. These corneal blocks were incubated for 20 hours under the conditions of 37° C. and 5% CO2 in a culture medium (Medium-199) containing the test compound. After incubation, the corneal blocks were fixed in a mixed solution of ethanol and glacial acetic acid (volume ratio of 95:5), embedded in paraffin, and prepared as sections. After deparaffination, the sections were stained with hematoxylin-eosin and the migrating length of the epithelial cell layer was measured under a microscope.
substance,measurement,setting,value
Ac-Pro-His-Ser-Arg-Asn-NH2 (Ac-PHSRN-NH2) [PHSRN (SEQ ID NO: 1)],Healing ratio (%),"[1]; 2 μM eye drop, 0 hr (baseline)",0%
same,Healing ratio (%),"[1]; 2 μM eye drop, 6 hr",9.66 ± 2.21%
same,Healing ratio (%),"[1]; 2 μM eye drop, 12 hr",26.71 ± 2.62%
same,Healing ratio (%),"[1]; 2 μM eye drop, 24 hr",61.91 ± 3.08%
same,Healing ratio (%),"[1]; 2 μM eye drop, 36 hr",88.08 ± 4.03%
same,Healing ratio (%),"[1]; 2 μM eye drop, 48 hr",99.14 ± 1.90%
same,Healing ratio (%),"[1]; 20 μM eye drop, 0 hr (baseline)",0%
same,Healing ratio (%),"[1]; 20 μM eye drop, 6 hr",10.73 ± 3.21%
same,Healing ratio (%),"[1]; 20 μM eye drop, 12 hr",28.01 ± 1.92%
same,Healing ratio (%),"[1]; 20 μM eye drop, 24 hr",64.07 ± 3.98%
same,Healing ratio (%),"[1]; 20 μM eye drop, 36 hr",89.09 ± 6.42%
same,Healing ratio (%),"[1]; 20 μM eye drop, 48 hr",99.15 ± 1.52%
same,Healing ratio (%),"[1]; 200 μM eye drop, 0 hr (baseline)",0%
same,Healing ratio (%),"[1]; 200 μM eye drop, 6 hr",11.06 ± 3.50%
same,Healing ratio (%),"[1]; 200 μM eye drop, 12 hr",28.69 ± 4.10%
same,Healing ratio (%),"[1]; 200 μM eye drop, 24 hr",67.70 ± 5.37%
same,Healing ratio (%),"[1]; 200 μM eye drop, 36 hr",94.97 ± 4.63%
same,Healing ratio (%),"[1]; 200 μM eye drop, 48 hr",100.00 ± 0.00%
same,Healing ratio (%),"[1]; 2000 μM eye drop, 0 hr (baseline)",0%
same,Healing ratio (%),"[1]; 2000 μM eye drop, 6 hr",11.15 ± 1.25%
same,Healing ratio (%),"[1]; 2000 μM eye drop, 12 hr",28.99 ± 2.65%
same,Healing ratio (%),"[1]; 2000 μM eye drop, 24 hr",69.49 ± 3.17%
same,Healing ratio (%),"[1]; 2000 μM eye drop, 36 hr",95.39 ± 3.06%
same,Healing ratio (%),"[1]; 2000 μM eye drop, 48 hr",100.00 ± 0.00%
same,promotion of wound healing,"[1]; instillation of eye drops, 6 mm wound, vs PBS",significant promotion of wound healing
same,Healing ratio (%),"[2]; 0.04% eye drop, 0 hr (baseline)",0%
same,Healing ratio (%),"[2]; 0.04% eye drop, 12 hr",13.57 ± 3.74%
same,Healing ratio (%),"[2]; 0.04% eye drop, 18 hr",29.45 ± 3.29%
same,Healing ratio (%),"[2]; 0.04% eye drop, 24 hr",58.71 ± 6.32%
same,Healing ratio (%),"[2]; 0.04% eye drop, 30 hr",58.71 ± 6.32%
same,Healing ratio (%),"[2]; 0.04% eye drop, 36 hr",70.29 ± 8.38%
same,Healing ratio (%),"[2]; 0.04% eye drop, 48 hr",88.27 ± 8.74%
same,Healing ratio (%),"[2]; 0.04% eye drop, 54 hr",94.24 ± 6.62%
same,Healing ratio (%),"[2]; 0.04% eye drop, 72 hr",98.93 ± 2.16%
same,promotion of wound healing,"[2]; instillation of eye drops, 8 mm wound, vs physiological saline",significant promotion of wound healing
same,migration of corneal epithelium (migrating length of epithelial cell layer),corneal epithelium,significant promotion
hyaluronic acid [reference compound],Healing ratio (%),"[2]; 0.3% eye drop, 0 hr (baseline)",0%
same,Healing ratio (%),"[2]; 0.3% eye drop, 12 hr",13.98 ± 4.88%
same,Healing ratio (%),"[2]; 0.3% eye drop, 18 hr",28.45 ± 3.37%
same,Healing ratio (%),"[2]; 0.3% eye drop, 24 hr",60.78 ± 8.07%
same,Healing ratio (%),"[2]; 0.3% eye drop, 30 hr",60.78 ± 8.07%
same,Healing ratio (%),"[2]; 0.3% eye drop, 36 hr",71.62 ± 11.02%
same,Healing ratio (%),"[2]; 0.3% eye drop, 48 hr",90.19 ± 9.51%
same,Healing ratio (%),"[2]; 0.3% eye drop, 54 hr",95.35 ± 6.44%
same,Healing ratio (%),"[2]; 0.3% eye drop, 72 hr",99.92 ± 0.22%
